ChEMBL document CHEMBL3885861, “Open TG-GATES”

Organism: Rattus norvegicus
Assay: Open TG-GATES - Regimen: Daily Repeat
Type: toxicity, organism-based, Sprague-Dawley
Parameters: regimen Daily Repeat, gender Male, age 6 weeks
Conditions: in vivo, po, 0 mg/kg, route gavage, dose level Control; for APTT / Bas / Eos / Fbg / Hb / Ht / Lym / MCH / MCHC / MCV / Mono / Neu / PT / Plat / RBC / Ret / WBC: tissue Blood; for KIDNEY_L / KIDNEY_R / KIDNEY_TOTAL: tissue Kidney; for LIVER: tissue Liver; for A/G / ALP / ALT / AST / BUN / CRE / Ca / Cl / DBIL / GLC / IP / K / LDH / Na / PL / RALB / TBIL / TC / TG / TP / gamma-GTP: tissue Plasma

`O=NN(CCCl)C(=O)NC1CCCCC1` [LOMUSTINE] was tested, and the TERMINAL_BW (72 h, time 3 day) was 220.6 g, the APTT (72 h, time 3 day) was 17.7 s and the Bas (72 h, time 3 day) was 0%. The Eos (72 h, time 3 day) was 0.6%, the Fbg (72 h, time 3 day) was 234 mg/dL and the Hb (72 h, time 3 day) was 13.5 g/dL. The Ht (72 h, time 3 day) was 40.6%, the Lym (72 h, time 3 day) was 76.8% and the MCH (72 h, time 3 day) was 21.8 pg. It also gave an MCHC (72 h, time 3 day) of 33.3%, an MCV (72 h, time 3 day) of 65.5 fL and a Mono (72 h, time 3 day) of 6.4%. The Neu (72 h, time 3 day) was 16.2%, the PT (72 h, time 3 day) was 11.8 s and the Plat (72 h, time 3 day) was 108.6 x10_4/uL. It also gave an RBC (72 h, time 3 day) of 619.4 x10_4/ul, a Ret (72 h, time 3 day) of 7.2% and a WBC (72 h, time 3 day) of 131.9 x10_2/uL. For the same molecule, the KIDNEY_L (72 h, time 3 day) was 1 g, the KIDNEY_R (72 h, time 3 day) was 1 g and the KIDNEY_TOTAL (72 h, time 3 day) was 2 g. For the same molecule, the LIVER (72 h, time 3 day) was 10.5 g, the A/G (72 h, time 3 day) was 2 and the ALP (72 h, time 3 day) was 1042.6 IU/L. The ALT (72 h, time 3 day) was 33.6 IU/L, the AST (72 h, time 3 day) was 69.4 IU/L and the BUN (72 h, time 3 day) was 18 mg/dL. For the same molecule, the CRE (72 h, time 3 day) was 0.5 mg/dL, the Ca (72 h, time 3 day) was 11 mg/dL and the Cl (72 h, time 3 day) was 104.4 meq/L. The DBIL (72 h, time 3 day) was 0.006 mg/dL, the GLC (72 h, time 3 day) was 186.2 mg/dL and the IP (72 h, time 3 day) was 8.5 mg/dL. It also gave a K (72 h, time 3 day) of 5.1 meq/L, an LDH (72 h, time 3 day) of 99.8 IU/L and a Na (72 h, time 3 day) of 140 meq/L. It also gave a PL (72 h, time 3 day) of 147.6 mg/dL, an RALB (72 h, time 3 day) of 3.9 g/dL and a TBIL (72 h, time 3 day) of 0.4 mg/dL. It also gave a TC (72 h, time 3 day) of 74.8 mg/dL, a TG (72 h, time 3 day) of 114.6 mg/dL and a TP (72 h, time 3 day) of 5.9 g/dL. For the same molecule, the gamma-GTP (72 h, time 3 day) was 2 IU/L, the TERMINAL_BW ([…], time 7 day) was 258.9 g and the TERMINAL_BW ([…], time 14 day) was 305.2 g. For the same molecule, the TERMINAL_BW ([…], time 28 day) was 379.6 g, the APTT ([…], time 7 day) was 17.7 s and the Bas ([…], time 7 day) was 0%. The Eos ([…], time 7 day) was 1%, the Fbg ([…], time 7 day) was 241.8 mg/dL and the Hb ([…], time 7 day) was 13.4 g/dL. It also gave a Ht ([…], time 7 day) of 40.2%, a Lym ([…], time 7 day) of 79.6% and an MCH ([…], time 7 day) of 21.8 pg. For the same molecule, the MCHC ([…], time 7 day) was 33.4%, the MCV ([…], time 7 day) was 65.2 fL and the Mono ([…], time 7 day) was 6%. It also gave a Neu ([…], time 7 day) of 14.2%, a PT ([…], time 7 day) of 11.4 s and a Plat ([…], time 7 day) of 107.5 x10_4/uL. It also gave an RBC ([…], time 7 day) of 617.4 x10_4/ul, a Ret ([…], time 7 day) of 7.2% and a WBC ([…], time 7 day) of 161 x10_2/uL. For the same molecule, the APTT ([…], time 14 day) was 16.7 s, the Bas ([…], time 14 day) was 0% and the Eos ([…], time 14 day) was 0.4%. For the same molecule, the Fbg ([…], time 14 day) was 224.4 mg/dL, the Hb ([…], time 14 day) was 14.1 g/dL and the Ht ([…], time 14 day) was 42%. It also gave a Lym ([…], time 14 day) of 80.8%, an MCH ([…], time 14 day) of 20.3 pg and an MCHC ([…], time 14 day) of 33.5%. The MCV ([…], time 14 day) was 60.7 fL, the Mono ([…], time 14 day) was 6.8% and the Neu ([…], time 14 day) was 11.8%. The PT ([…], time 14 day) was 11.4 s, the Plat ([…], time 14 day) was 119.2 x10_4/uL and the RBC ([…], time 14 day) was 693.2 x10_4/ul. The Ret ([…], time 14 day) was 4.9%, the WBC ([…], time 14 day) was 145.5 x10_2/uL and the APTT ([…], time 28 day) was 17.5 s. The Bas ([…], time 28 day) was 0%, the Eos ([…], time 28 day) was 1% and the Fbg ([…], time 28 day) was 250.6 mg/dL. It also gave a Hb ([…], time 28 day) of 15 g/dL, a Ht ([…], time 28 day) of 44.9% and a Lym ([…], time 28 day) of 82.8%. It also gave an MCH ([…], time 28 day) of 19.2 pg, an MCHC ([…], time 28 day) of 33.5% and an MCV ([…], time 28 day) of 57.3 fL. The Mono ([…], time 28 day) was 5.4%, the Neu ([…], time 28 day) was 10.8% and the PT ([…], time 28 day) was 11.9 s. The Plat ([…], time 28 day) was 107.1 x10_4/uL, the RBC ([…], time 28 day) was 783 x10_4/ul and the Ret ([…], time 28 day) was 2.5%. The WBC ([…], time 28 day) was 166.4 x10_2/uL, the KIDNEY_L ([…], time 7 day) was 1.2 g and the KIDNEY_R ([…], time 7 day) was 1.1 g. For the same molecule, the KIDNEY_TOTAL ([…], time 7 day) was 2.3 g, the KIDNEY_L ([…], time 14 day) was 1.1 g and the KIDNEY_R ([…], time 14 day) was 1.2 g. For the same molecule, the KIDNEY_TOTAL ([…], time 14 day) was 2.3 g, the KIDNEY_L ([…], time 28 day) was 1.4 g and the KIDNEY_R ([…], time 28 day) was 1.4 g. It also gave a KIDNEY_TOTAL ([…], time 28 day) of 2.7 g, an LIVER ([…], time 7 day) of 12.8 g and an LIVER ([…], time 14 day) of 14.1 g. It also gave an LIVER ([…], time 28 day) of 15.1 g, an A/G ([…], time 7 day) of 1.8 and an ALP ([…], time 7 day) of 746 IU/L. The ALT ([…], time 7 day) was 36.6 IU/L, the AST ([…], time 7 day) was 59 IU/L and the BUN ([…], time 7 day) was 19.2 mg/dL. It also gave a CRE ([…], time 7 day) of 0.5 mg/dL, a Ca ([…], time 7 day) of 10.9 mg/dL and a Cl ([…], time 7 day) of 105.2 meq/L. It also gave a DBIL ([…], time 7 day) of 0.012 mg/dL, a GLC ([…], time 7 day) of 186 mg/dL and an IP ([…], time 7 day) of 7.5 mg/dL. For the same molecule, the K ([…], time 7 day) was 4.9 meq/L, the LDH ([…], time 7 day) was 85 IU/L and the Na ([…], time 7 day) was 140.4 meq/L. It also gave a PL ([…], time 7 day) of 168.2 mg/dL, an RALB ([…], time 7 day) of 3.9 g/dL and a TBIL ([…], time 7 day) of 0.3 mg/dL. The TC ([…], time 7 day) was 90 mg/dL, the TG ([…], time 7 day) was 113.2 mg/dL and the TP ([…], time 7 day) was 6.1 g/dL. It also gave a gamma-GTP ([…], time 7 day) of 1 IU/L, an A/G ([…], time 14 day) of 2 and an ALP ([…], time 14 day) of 859 IU/L. The ALT ([…], time 14 day) was 34 IU/L, the AST ([…], time 14 day) was 63.4 IU/L and the BUN ([…], time 14 day) was 20.2 mg/dL. For the same molecule, the CRE ([…], time 14 day) was 0.5 mg/dL, the Ca ([…], time 14 day) was 11.3 mg/dL and the Cl ([…], time 14 day) was 106.8 meq/L. The DBIL ([…], time 14 day) was 0.014 mg/dL, the GLC ([…], time 14 day) was 183 mg/dL and the IP ([…], time 14 day) was 7.4 mg/dL. For the same molecule, the K ([…], time 14 day) was 4.7 meq/L, the LDH ([…], time 14 day) was 85.6 IU/L and the Na ([…], time 14 day) was 140.2 meq/L. It also gave a PL ([…], time 14 day) of 167.6 mg/dL, an RALB ([…], time 14 day) of 4 g/dL and a TBIL ([…], time 14 day) of 0.3 mg/dL. For the same molecule, the TC ([…], time 14 day) was 81 mg/dL, the TG ([…], time 14 day) was 118.6 mg/dL and the TP ([…], time 14 day) was 6.2 g/dL. The gamma-GTP ([…], time 14 day) was 2 IU/L, the A/G ([…], time 28 day) was 1.6 and the ALP ([…], time 28 day) was 681.8 IU/L. It also gave an ALT ([…], time 28 day) of 32.2 IU/L, an AST ([…], time 28 day) of 63.4 IU/L and a BUN ([…], time 28 day) of 19 mg/dL. It also gave a CRE ([…], time 28 day) of 0.4 mg/dL, a Ca ([…], time 28 day) of 10.8 mg/dL and a Cl ([…], time 28 day) of 106 meq/L. For the same molecule, the DBIL ([…], time 28 day) was 0.012 mg/dL, the GLC ([…], time 28 day) was 189.8 mg/dL and the IP ([…], time 28 day) was 6.3 mg/dL. The K ([…], time 28 day) was 4.6 meq/L, the LDH ([…], time 28 day) was 86.4 IU/L and the Na ([…], time 28 day) was 140 meq/L. It also gave a PL ([…], time 28 day) of 148.4 mg/dL, an RALB ([…], time 28 day) of 4 g/dL and a TBIL ([…], time 28 day) of 0.3 mg/dL. It also gave a TC ([…], time 28 day) of 71 mg/dL, a TG ([…], time 28 day) of 122.2 mg/dL and a TP ([…], time 28 day) of 6.4 g/dL. The gamma-GTP ([…], time 28 day) was 1.8 IU/L.
